Experimental data as given in article PMC3435281 (PLoS ONE, 2012).

Columns and labels:
Assay type in all cases: cell-based, mouse
[1] = test system: AHR^−/− splenocytes; experiment: CYP1A1 and IDO mRNA in AHR^−/− splenocytes; conditions: null cells, SU5416 500 nM or IFN-γ 100 ng/ml, 4 hours
Source text: An important role for the AHR in the immune system, and specifically T-cell differentiation, has been recognized and continues to be characterized in the literature, [7]. Some ligands of the AHR have the ability to enhance Treg differentiation from naïve T-cells (TCDD, kynurenine), while others direct differentiation towards Th17 effector cells (FICZ). […] IDO has long been known to play a role in Treg generation, and may be central to the mechanism of Dendritic Cell (DC)-directed Treg generation. We as well as others have previously shown that IDO mRNA can be induced by ligands of the AHR, and that the mechanisms of IDO-directed Treg generation may depend on the AHR [25]. […] As described in the Methods, naïve T-cells were sorted using magnetic bead separation, and placed in culture for 5 days with allogeneic pDCs separated from BALB/C mice. SU5416, TCDD, FICZ, or media alone was added at the start of culture. After 5 days, cells were collected and mRNA harvested for qPCR analysis of IDO and FoxP3. […] We used a dose of 2 ng/ml TGF-β, which in our hands has been a suboptimal dose for Treg generation (4 ng/ml has been optimal in our hands). […]
(§1) A. Spleens were harvested from mice and processed in the standard fashion. […] Same assay as A, but mRNA for CYP1B1 and IDO were measured. […] Same assay as in C, but IDO mRNA was assessed. * - p≤0.05. * - p≤0.01. […]

[2] = test system: C57BL/6J splenocytes; experiment: CYP1A1, CYP1B1 and IDO mRNA in C57BL/6J splenocytes; conditions: 4 hours
Source text: An important role for the AHR in the immune system, and specifically T-cell differentiation, has been recognized and continues to be characterized in the literature, [7]. Some ligands of the AHR have the ability to enhance Treg differentiation from naïve T-cells (TCDD, kynurenine), while others direct differentiation towards Th17 effector cells (FICZ). […] IDO has long been known to play a role in Treg generation, and may be central to the mechanism of Dendritic Cell (DC)-directed Treg generation. […] As described in the Methods, naïve T-cells were sorted using magnetic bead separation, and placed in culture for 5 days with allogeneic pDCs separated from BALB/C mice. […] After 5 days, cells were collected and mRNA harvested for qPCR analysis of IDO and FoxP3. […] Naïve T cells were placed in culture with IL-6 and TGF-β, and harvested after 3 days of culture.
A. Spleens were harvested from mice and processed in the standard fashion. […] Same assay as A, but mRNA for CYP1B1 and IDO were measured. C.

[3] = test system: naïve CD4^+ T cells; experiment: Naïve CD4+ T cells with TGF-β, flow cytometry of FoxP3 and CD39; conditions: TGF-β 2 ng/ml with SU5416 250 nM, day 3
Source text: An important role for the AHR in the immune system, and specifically T-cell differentiation, has been recognized and continues to be characterized in the literature, [7]. Some ligands of the AHR have the ability to enhance Treg differentiation from naïve T-cells (TCDD, kynurenine), while others direct differentiation towards Th17 effector cells (FICZ). […] IDO has long been known to play a role in Treg generation, and may be central to the mechanism of Dendritic Cell (DC)-directed Treg generation. We as well as others have previously shown that IDO mRNA can be induced by ligands of the AHR, and that the mechanisms of IDO-directed Treg generation may depend on the AHR [25]. […] As described in the Methods, naïve T-cells were sorted using magnetic bead separation, and placed in culture for 5 days with allogeneic pDCs separated from BALB/C mice. […]
as §1
Naive CD4^+ T cells were isolated using the CD4^+ CD62L Isolation Kit (Miltenyi Biotec, Auburn, CA) and an autoMACS. […] For quantitative PCR (qPCR) analysis, 2–5 × 10^5 cells were cultured in each well of a 96-well round-bottom plate coated with 0.5 µg/ml anti-CD3 and anti-CD28 overnight and then washed with PBS twice before seeding the cells. […]

## Cc1cc(C)c(C=C2C(=O)Nc3ccccc32)[nH]1 [SU5416, 3-(3,5-dimethyl-1H-pyrrol-2-ylmethylene)-1,3-dihydro-indole-2-one]
[1]
  IDO mRNA induction: not null cells
[2]; titrating doses
  induction of CYP1A1 and CYP1B1 mRNA: dramatically induced
  induction of IDO mRNA: induced significant amounts of IDO mRNA
[2]; wild-type cells, SU5416 500 nM
  CYP1A1 mRNA induction: induced CYP1A1 in wild-type
[3]
  CD39 in the FoxP3^+ T cells: upregulated
  FoxP3 protein expression by flow cytometry: significantly enhanced
